# Values of other authors, collected in US5427767A, “Nanocrystalline magnetic iron oxide particles-method for preparation and use in medical diagnostics and therapy” (Institut fur Diagnostikforschung GmbH an der Freien …, priority 1991, dated 1995).
# Columns and labels:
# [1] = 0.47 T, water, 40° C
# [2] = in vivo
Compound,T1 relaxivity [1],T2 relaxivity [1],allergic potential [2]
O=C([O-])CN(CCN(CC(=O)[O-])CC(=O)O)CCN(CC(=O)[O-])CC(=O)O.[Gd+3] [Gd-DTPA],~4 1/mmol .phi.s,~4 1/mmol .phi.s,–
dextran,–,–,adverse allergic potential
